Drawing on patent publication US11702419B2, “Heterocyclic compound and use thereof” (Takeda Pharmaceutical Company Limited, priority 2018, dated 2023), this text covers inhibition for 31 compounds.

In this test the target is T1, NMDA receptor composed of four subunits consisting of two sets of heterodimers of NR1 and NR2B (human GRIN1 and GRIN2B-expressing HEK293 cells) (Homo sapiens, UniProt Q13224).
T1 construct: host or cells: HEK293 (tetracycline-inducible expression)
T1 sequence (Q13224 27-1484, other chains not shown): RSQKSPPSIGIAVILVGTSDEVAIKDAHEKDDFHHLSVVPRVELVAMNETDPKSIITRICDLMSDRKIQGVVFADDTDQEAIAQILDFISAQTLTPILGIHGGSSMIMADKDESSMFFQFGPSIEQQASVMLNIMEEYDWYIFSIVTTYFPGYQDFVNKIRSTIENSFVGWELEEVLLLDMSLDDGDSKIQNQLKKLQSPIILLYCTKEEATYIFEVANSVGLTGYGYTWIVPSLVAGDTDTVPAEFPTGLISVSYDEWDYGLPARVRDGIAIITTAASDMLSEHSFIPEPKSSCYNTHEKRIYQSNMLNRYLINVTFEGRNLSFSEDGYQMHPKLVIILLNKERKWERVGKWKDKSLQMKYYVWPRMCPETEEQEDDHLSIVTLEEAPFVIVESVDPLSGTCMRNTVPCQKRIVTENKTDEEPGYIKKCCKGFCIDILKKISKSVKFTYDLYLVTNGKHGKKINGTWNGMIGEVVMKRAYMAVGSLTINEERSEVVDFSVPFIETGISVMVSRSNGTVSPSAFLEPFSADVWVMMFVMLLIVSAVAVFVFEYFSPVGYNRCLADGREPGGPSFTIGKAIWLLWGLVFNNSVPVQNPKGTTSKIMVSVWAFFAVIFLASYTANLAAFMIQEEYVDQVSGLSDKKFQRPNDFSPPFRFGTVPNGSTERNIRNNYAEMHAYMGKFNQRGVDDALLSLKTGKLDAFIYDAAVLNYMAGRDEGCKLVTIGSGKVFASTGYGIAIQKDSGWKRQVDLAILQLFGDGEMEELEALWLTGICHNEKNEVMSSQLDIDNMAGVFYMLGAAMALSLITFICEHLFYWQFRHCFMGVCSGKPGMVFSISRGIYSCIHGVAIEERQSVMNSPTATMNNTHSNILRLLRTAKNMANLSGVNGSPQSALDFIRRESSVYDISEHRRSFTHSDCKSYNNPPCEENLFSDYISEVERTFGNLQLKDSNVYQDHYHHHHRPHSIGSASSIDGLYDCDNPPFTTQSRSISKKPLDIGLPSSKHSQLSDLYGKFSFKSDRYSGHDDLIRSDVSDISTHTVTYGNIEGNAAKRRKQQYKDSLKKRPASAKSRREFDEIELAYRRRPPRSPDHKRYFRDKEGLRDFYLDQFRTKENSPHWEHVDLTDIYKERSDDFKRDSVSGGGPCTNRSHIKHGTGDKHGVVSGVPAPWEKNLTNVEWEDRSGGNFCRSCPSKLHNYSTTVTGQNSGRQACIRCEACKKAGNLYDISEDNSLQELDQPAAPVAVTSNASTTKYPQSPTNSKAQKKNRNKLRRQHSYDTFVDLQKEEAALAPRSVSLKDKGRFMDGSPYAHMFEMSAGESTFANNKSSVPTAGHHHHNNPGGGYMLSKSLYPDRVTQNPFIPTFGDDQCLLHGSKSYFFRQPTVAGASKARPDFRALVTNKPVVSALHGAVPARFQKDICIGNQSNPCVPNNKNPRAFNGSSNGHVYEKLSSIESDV
Kind of test: NR2B Ca2+ influx assay. The settings on record: 10 μM compound, glutamic acid/glycine-induced Ca2+ influx, FLIPR, read-out: inhibitory rate (10 μM compound concentration). The test is classed as cell-based. As for the experimental part:
In order to confirm an “antagonistic action on an NMDA receptor containing the NR2B subunit” which the compound of the present invention has, inhibitory effect on the NMDA receptor activation was evaluated using “NMDA receptor composed of four subunits consisting of two sets of heterodimers of NR1 and NR2B”-expressing human fetal renal cells, specifically human glutamate ionotropic receptor NMDA type subunit 1 (GRIN1) and human glutamate ionotropic receptor NMDA type subunit 2B (GRIN2B)-expressing HEK293 cells.
As an index of the NMDA receptor activation, intracellular calcium ion (Ca^2+) influx caused by bonding of glycine and glutamate to NR1 and NR2B respectively was used. HEK293 cells were purchased from ChanTest. The cells were cultured in a DMEM/F-12 (COSMO BIO, 10-092-CM) medium containing 10% FBS (fetal bovine serum, AusGene), 100 units/mL penicillin, 100 μg/mL streptomycin, 500 μg/mL neomycin, 100 μg/mL Zeocin and 5 μg/mL Blasticidin at 37° C., 5% CO2. The cells were detached from flask with trypsin the day before the assay, suspended in a seeding medium (DMEM (Invitrogen, 31053) containing 10% FBS, 100 units/mL penicillin and 100 μg/mL streptomycin) at 8×10^5 cells/mL, seeded by 25 μL per well in a 384-well plate (Falcon, 356663) at 20000 cells/well, and cultured overnight in an incubator. On the day of the assay, tetracycline (Wako Pure Chemical Industries, 209-16561) was diluted with the seeding medium at 2 μg/mL, and the dilution was added at 25 μL/well to the plate seeded with the cells, and the cells were cultured for 2 hr in an incubator. Thereafter, the medium was removed, and the cells were washed with 50 μL/well of assay buffer (137 mM NaCl, 4 mM KCl, 1.8 mM CaCl2, 10 mM HEPES (pH 7.2), 10 mM Glucose, and 0.1% BSA). Then, a loading buffer (assay buffer containing 2.5 μM Fluo-4AM, 2 mM Amaranth and 1 mM Tartrazine) was added thereto at 25 μL/well, and loading was performed in the incubator for 30 min, and then at room temperature for 15 min. The test compound was diluted with the above-mentioned assay buffer so as to adjust the concentration to 30 μM, the obtained solution (25 μL) was added thereto (the final concentration 10 μM), and the cells were stood for 15 min at room temperature. Using FLIPR (Molecular Devices), 25 μL of an assay buffer containing 30 μM glutamic acid and 30 μM glycine was added thereto, and the fluorescence signal was measured every 3 seconds for 5 min. The relative activity value (inhibitory rate) was calculated when the cumulative total value of the fluorescence value of a well added with a buffer free of glutamic acid and glycine, relative to the cumulative total value of the fluorescence value of each well are regarded as 100% inhibition. The obtained value was evaluated as an inhibitory activity.
Regarding `Cc1ccnn2ncc(CNC(=O)c3ccc(OC(F)F)c(F)c3)c12` [Example 36, 4-(difluoromethoxy)-3-fluoro-N-((4-methylpyrazolo[1,5-b]pyridazin-3-yl)methyl)benzamide], the inhibition at 10 µM was 97%. In the case of `Cc1ccnn2ncc(CNC(=O)c3cnc(OC(F)F)c(F)c3)c12` [Example 37, 6-(difluoromethoxy)-5-fluoro-N-((4-methylpyrazolo[1,5-b]pyridazin-3-yl)methyl)nicotinamide], the inhibition at 10 µM was 96%. The value for `Cc1cnn2ncc(CNC(=O)c3ccc(OC(F)F)c(F)c3)c2c1` [Example 38, 4-(difluoromethoxy)-3-fluoro-N-((5-methylpyrazolo[1,5-b]pyridazin-3-yl)methyl)benzamide] was 98%. For `Cc1cnn2ncc(CNC(=O)c3cnc(OC(F)F)c(F)c3)c2c1` [Example 39, 6-(difluoromethoxy)-5-fluoro-N-((5-methylpyrazolo[1,5-b]pyridazin-3-yl)methyl)nicotinamide], the inhibition at 10 µM amounted to 97%. With `O=C(NCc1nnn2ncccc12)c1ccc(OC(F)(F)F)c(Cl)c1` [Example 40, 3-chloro-N-([1,2,3]triazolo[1,5-b]pyridazin-3-ylmethyl)-4-(trifluoromethoxy)benzamide], the inhibition at 10 µM is 98%. Regarding `COc1c(F)cc(C(=O)NCc2nnn3ccccc23)cc1F` [Example 41, 3,5-difluoro-4-methoxy-N-([1,2,3]triazolo[1,5-a]pyridin-3-ylmethyl)benzamide], the inhibition at 10 µM was determined as 86%. The value for `O=C(NCc1nnn2ccncc12)c1ccc(OC(F)(F)F)c(F)c1` [Example 42, 3-fluoro-N-([1,2,3]triazolo[1,5-a]pyrazin-3-ylmethyl)-4-(trifluoromethoxy)benzamide] was 94%; that for `O=C(NCc1c(C(F)F)nn2ncccc12)c1cnc(OC(F)F)c(F)c1` [Example 43, 6-(difluoromethoxy)-N-((2-(difluoromethyl)pyrazolo[1,5-b]pyridazin-3-yl)methyl)-5-fluoronicotinamide] was 95%. Turning to `O=C(NCc1cnn2ccncc12)c1ccc(OC(F)F)c(F)c1` [Example 44, 4-(difluoromethoxy)-3-fluoro-N-(pyrazolo[1,5-a]pyrazin-3-ylmethyl)benzamide], the inhibition at 10 µM is 94%.

Turning to `O=C(NCc1cnn2ccncc12)c1cnc(OC(F)F)c(F)c1` [Example 45, 6-(difluoromethoxy)-5-fluoro-N-(pyrazolo[1,5-a]pyrazin-3-ylmethyl)nicotinamide], the inhibition at 10 µM was determined as 92%. As to `Cc1nn2ncccc2c1CNC(=O)c1cnc(OC(F)F)c(Cl)c1` [Example 46, 5-chloro-6-(difluoromethoxy)-N-((2-methylpyrazolo[1,5-b]pyridazin-3-yl)methyl)nicotinamide], the inhibition at 10 µM was 96%. Turning to `O=C(NCc1cnn2nccnc12)c1ccc(OC(F)(F)F)c(F)c1` [Example 47, 3-fluoro-N-(pyrazolo[1,5-b][1,2,4]triazin-8-ylmethyl)-4-(trifluoromethoxy)benzamide], the inhibition at 10 µM is 93%. The value for `Cc1nn2cnccc2c1CNC(=O)c1ccc(OC(F)(F)F)c(F)c1` [Example 48, 3-fluoro-N-((2-methylpyrazolo[1,5-c]pyrimidin-3-yl)methyl)-4-(trifluoromethoxy)benzamide] was 90%. Turning to `Cc1cnn2nnc(CNC(=O)c3ccc(OC(F)(F)F)c(F)c3)c2c1` [Example 49, 3-fluoro-N-((5-methyl[1,2,3]triazolo[1,5-b]pyridazin-3-yl)methyl)-4-(trifluoromethoxy)benzamide], the inhibition at 10 µM was 98%.

With `Cc1cnn2nnc(CNC(=O)c3cnc(OC(F)F)c(F)c3)c2c1` [Example 50, 6-(difluoromethoxy)-5-fluoro-N-((5-methyl[1,2,3]triazolo[1,5-b]pyridazin-3-yl)methyl)nicotinamide], the inhibition at 10 µM is 97%.

Consider `Cc1cnn2nnc(CNC(=O)c3cnc(OC(F)F)c(Cl)c3)c2c1` [Example 51, 5-chloro-6-(difluoromethoxy)-N-((5-methyl[1,2,3]triazolo[1,5-b]pyridazin-3-yl)methyl)nicotinamide], for which the inhibition at 10 µM is 97%. As for `Cc1ccnn2nnc(CNC(=O)c3ccc(OC(F)(F)F)c(F)c3)c12` [Example 52, 3-fluoro-N-((4-methyl[1,2,3]triazolo[1,5-b]pyridazin-3-yl)methyl)-4-(trifluoromethoxy)benzamide], the inhibition at 10 µM was determined as 95%. Take `Cc1ccnn2nnc(CNC(=O)c3cnc(OC(F)F)c(F)c3)c12` [Example 53, 6-(difluoromethoxy)-5-fluoro-N-((4-methyl[1,2,3]triazolo[1,5-b]pyridazin-3-yl)methyl)nicotinamide]: the inhibition at 10 µM was 84%. The value for `Cc1ccnn2nnc(CNC(=O)c3cnc(OC(F)F)c(Cl)c3)c12` [Example 54, 5-chloro-6-(difluoromethoxy)-N-((4-methyl[1,2,3]triazolo[1,5-b]pyridazin-3-yl)methyl)nicotinamide] was 79%. On to `Cc1nn2cnccc2c1CNC(=O)c1cnc(OC(F)F)c(F)c1` [Example 55, 6-(difluoromethoxy)-5-fluoro-N-((2-methylpyrazolo[1,5-c]pyrimidin-3-yl)methyl)nicotinamide], for which the inhibition at 10 µM is 84%. For the compound `Cc1nn2cnccc2c1CNC(=O)c1cnc(OC(F)F)c(Cl)c1` [Example 56, 5-chloro-6-(difluoromethoxy)-N-((2-methylpyrazolo[1,5-c]pyrimidin-3-yl)methyl)nicotinamide], the inhibition at 10 µM was 85%.

Regarding `Cn1ccn2ncc(CNC(=O)c3ccc(OC(F)(F)F)c(F)c3)c12` [Example 57, 3-fluoro-N-((1-methyl-1H-imidazo[1,2-b]pyrazol-7-yl)methyl)-4-(trifluoromethoxy)benzamide], the inhibition at 10 µM turned out to be 97%. The value for `Cn1ccn2ncc(CNC(=O)c3cnc(OC(F)F)c(Cl)c3)c12` [Example 59, 5-chloro-6-(difluoromethoxy)-N-((1-methyl-1H-imidazo[1,2-b]pyrazol-7-yl)methyl)nicotinamide] was 97%; that for `Cn1ccn2ncc(CNC(=O)c3ccc(OC4CC4)cc3)c12` [Example 60, 4-(cyclopropyloxy)-N-((1-methyl-1H-imidazo[1,2-b]pyrazol-7-yl)methyl)benzamide] was 88%; that for `COc1ncc(C(=O)NCc2cnn3ccn(C)c23)cc1F` [Example 61, 5-fluoro-6-methoxy-N-((1-methyl-1H-imidazo[1,2-b]pyrazol-7-yl)methyl)nicotinamide] was 88%. Consider `COc1c(F)cc(C(=O)NCc2cnn3ccn(C)c23)cc1F` [Example 62, 3,5-difluoro-4-methoxy-N-((1-methyl-1H-imidazo[1,2-b]pyrazol-7-yl)methyl)benzamide], for which the inhibition at 10 µM was found to be 95%. Regarding `Cn1ccn2ncc(CNC(=O)c3ccc(Cl)c(F)c3)c12` [Example 63, 4-chloro-3-fluoro-N-((1-methyl-1H-imidazo[1,2-b]pyrazol-7-yl)methyl)benzamide], the inhibition at 10 µM was 96%. The value for `Cn1ccn2ncc(CNC(=O)c3ccc(OC(F)(F)F)nc3)c12` [Example 64, N-((1-methyl-1H-imidazo[1,2-b]pyrazol-7-yl)methyl)-6-(trifluoromethoxy)nicotinamide] was 96%. On to `Cn1ccn2ncc(CNC(=O)c3ccc(C(F)(F)F)s3)c12` [Example 65, N-((1-methyl-1H-imidazo[1,2-b]pyrazol-7-yl)methyl)-5 (trifluoromethyl)thiophene-2-carboxamide], for which the inhibition at 10 µM is 96%.

`Cn1ccn2ncc(CNC(=O)c3ccc(OC(F)(F)F)cc3)c12` [Example 66, N-((1-methyl-1H-imidazo[1,2-b]pyrazol-7-yl)methyl)-4-(trifluoromethoxy)benzamide]: the inhibition at 10 µM is 98%. For the compound `Cn1ccn2ncc(CNC(=O)c3ccc(C(F)(F)F)c(F)c3)c12` [Example 67, 3-fluoro-N-((1-methyl-1H-imidazo[1,2-b]pyrazol-7-yl)methyl)-4-(trifluoromethyl)benzamide], the inhibition at 10 µM came out at 98%.
